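Results reflect a 48-hour exposure of cells in 96-well plates to compound at five concentrations. The concentration for 50% growth inhibition is given as GI50.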 Activity calls are given as the source filed them. No stated cut-off is given here; in the data, active = GI50 up to about 1.1 µM and inactive = higher.
How the values were obtained:
Test in all cases: inhibition of tumour cell growth, NCI panel, 48 h
NCI-H23 = tested on: NCI-H23
MOLT-4 = tested on: MOLT-4
786-0 = tested on: 786-0
HL-60 = tested on: HL-60
Hs-578T = tested on: Hs-578T
SNB-19 = tested on: SNB-19
HCT-15 = tested on: HCT-15
NCI-H226 = tested on: NCI-H226
KM12 = tested on: KM12
UACC-62 = tested on: UACC-62
IGROV-1 = tested on: IGROV-1
PC-3 = tested on: PC-3
SF-268 = tested on: SF-268
OVCAR-8 = tested on: OVCAR-8
NCI/ADR-RES = tested on: NCI/ADR-RES
MDA-N = tested on: MDA-N
ACHN = tested on: ACHN
HOP-92 = tested on: HOP-92
UO-31 = tested on: UO-31

Compound | GI50 (NCI-H23) | GI50 (MOLT-4) | GI50 (786-0) | GI50 (HL-60) | GI50 (Hs-578T) | GI50 (SNB-19) | GI50 (HCT-15) | GI50 (NCI-H226) | GI50 (KM12) | GI50 (UACC-62) | GI50 (IGROV-1) | GI50 (PC-3) | GI50 (SF-268) | GI50 (OVCAR-8) | GI50 (NCI/ADR-RES) | GI50 (MDA-N) | GI50 (ACHN) | GI50 (HOP-92) | GI50 (UO-31)
FC(F)(F)c1nc2nc(Cl)c(Cl)nc2n1CCCN1CCOCC1 | 34.7 µM (inactive) | 13 µM (inactive) | > 100 µM (inactive) | 19.1 µM (inactive) | 33.7 µM (inactive) | 51.4 µM (inactive) | 29 µM | > 100 µM (inactive) | > 100 µM (inactive) | 50.6 µM (inactive) | 26.4 µM (inactive) | 61.2 µM (inactive) | 40.4 µM (inactive) | 29.3 µM (inactive) | > 100 µM (inactive) | 35.7 µM (inactive) | > 100 µM (inactive) | 32 µM (inactive) | –
CC(=O)c1ccc2c(c1)CC1(C2)Cc2cc3c(cc2C1)C(=O)CC3 (stereo not given) | 3.06 µM (inactive) | – | 3.64 µM (inactive) | 0.76 µM (active) | 5.73 µM (inactive) | 1.67 µM (inactive) | 1.08 µM | 0.31 µM (active) | 0.624 µM (active) | 3.29 µM (inactive) | 2.67 µM (inactive) | 3.13 µM (inactive) | 3.15 µM (inactive) | 3.49 µM (inactive) | 1.57 µM (inactive) | 0.207 µM (active) | 3.07 µM (inactive) | 4.21 µM (inactive) | 9.53 µM (inactive)
CCCNC(=S)N/N=C1\C(=O)Nc2ccccc21 | > 100 µM (inactive) | > 100 µM (inactive) | > 100 µM (inactive) | > 100 µM (inactive) | > 100 µM (inactive) | > 100 µM (inactive) | > 100 µM | > 100 µM (inactive) | > 100 µM (inactive) | > 100 µM (inactive) | > 100 µM (inactive) | > 100 µM (inactive) | > 100 µM (inactive) | > 100 µM (inactive) | > 100 µM (inactive) | > 100 µM (inactive) | > 100 µM (inactive) | > 100 µM (inactive) | > 100 µM (inactive)
O=C(CC(C(=O)O)N1CCOCC1)c1ccccc1 (stereo not given) | 20.7 µM (inactive) | 15.2 µM (inactive) | 15.1 µM (inactive) | 20.6 µM (inactive) | 34.1 µM (inactive) | 21 µM (inactive) | 19.5 µM | > 100 µM (inactive) | – | 14.6 µM (inactive) | 26.2 µM (inactive) | 16.5 µM (inactive) | 19.5 µM (inactive) | 30.8 µM (inactive) | > 100 µM (inactive) | 17.8 µM (inactive) | 16 µM (inactive) | 20.4 µM (inactive) | –
CN(C)CCCN1c2ccccc2Sc2cnccc21 | – | 60 µM (inactive) | 77.1 µM (inactive) | 74 µM (inactive) | > 100 µM (inactive) | > 100 µM (inactive) | > 100 µM | 83.2 µM (inactive) | > 100 µM (inactive) | 38.5 µM (inactive) | > 100 µM (inactive) | > 100 µM (inactive) | > 100 µM (inactive) | > 100 µM (inactive) | > 100 µM (inactive) | 64.7 µM (inactive) | 52.8 µM (inactive) | 61 µM (inactive) | > 100 µM (inactive)
COc1cc(OC)c(NC2=NCCO2)cc1Cl | 22.2 µM (inactive) | 44.2 µM (inactive) | 30.1 µM (inactive) | 43.3 µM (inactive) | 61.7 µM (inactive) | > 100 µM (inactive) | 33.9 µM | 25.7 µM (inactive) | 16.7 µM (inactive) | 60.7 µM (inactive) | 38 µM (inactive) | 24.3 µM (inactive) | 39.7 µM (inactive) | 83 µM (inactive) | 32.4 µM (inactive) | 17.1 µM (inactive) | 64.7 µM (inactive) | – | 91.6 µM (inactive)
CCOC(=O)/C(C(=O)c1ccc[nH]1)=C1/CCCN1C | > 100 µM (inactive) | 49.5 µM (inactive) | > 100 µM (inactive) | > 100 µM (inactive) | > 100 µM (inactive) | > 100 µM (inactive) | > 100 µM | > 100 µM (inactive) | > 100 µM (inactive) | > 100 µM (inactive) | > 100 µM (inactive) | > 100 µM (inactive) | > 100 µM (inactive) | > 100 µM (inactive) | > 100 µM (inactive) | > 100 µM (inactive) | > 100 µM (inactive) | – | > 100 µM (inactive)
Nc1nnc2n1C(=O)C(C1(C3=Nc4nnc(N)n4C3=O)Cc3ccccc3C1=O)=N2 | > 100 µM (inactive) | > 100 µM (inactive) | > 100 µM (inactive) | > 100 µM (inactive) | > 100 µM (inactive) | > 100 µM (inactive) | > 100 µM | > 100 µM (inactive) | > 100 µM (inactive) | > 100 µM (inactive) | – | > 100 µM (inactive) | > 100 µM (inactive) | > 100 µM (inactive) | > 100 µM (inactive) | > 100 µM (inactive) | > 100 µM (inactive) | > 100 µM (inactive) | > 100 µM (inactive)
O=[N+]([O-])c1cc2c([N+](=O)[O-])cccc2o1 | 15.8 µM (inactive) | – | 2.17 µM (inactive) | – | 13.1 µM (inactive) | 19.2 µM (inactive) | 4.59 µM | 12.6 µM (inactive) | 15.2 µM (inactive) | 13 µM (inactive) | – | 12.4 µM (inactive) | 15.7 µM (inactive) | 17 µM (inactive) | 14.3 µM (inactive) | 7.93 µM (inactive) | 3.34 µM (inactive) | 17.4 µM (inactive) | 1.88 µM (inactive)
Cc1ccc(S(=O)(=O)NC(=O)NC(CC(=O)O)C(=O)O)cc1 (stereo not given) | > 100 µM (inactive) | > 100 µM (inactive) | > 100 µM (inactive) | > 100 µM (inactive) | > 100 µM (inactive) | > 100 µM (inactive) | > 100 µM | – | > 100 µM (inactive) | > 100 µM (inactive) | > 100 µM (inactive) | > 100 µM (inactive) | > 100 µM (inactive) | > 100 µM (inactive) | > 100 µM (inactive) | > 100 µM (inactive) | > 100 µM (inactive) | > 100 µM (inactive) | > 100 µM (inactive)
COc1ccc(Cn2nc(OCc3ccccn3)c3cc([N+](=O)[O-])ccc32)cc1 | > 100 µM (inactive) | > 100 µM (inactive) | > 100 µM (inactive) | > 100 µM (inactive) | > 100 µM (inactive) | 85.9 µM (inactive) | > 100 µM | > 100 µM (inactive) | > 100 µM (inactive) | 35.7 µM (inactive) | > 100 µM (inactive) | > 100 µM (inactive) | > 100 µM (inactive) | 63.1 µM (inactive) | > 100 µM (inactive) | > 100 µM (inactive) | > 100 µM (inactive) | – | > 100 µM (inactive)
C[C@@H](C[C@@H](O)[C@H](O)C(C)(C)O)[C@H]1CC=C2[C@]3(C)[C@H](O)C[C@H]4C(C)(C)[C@H](O)CC[C@]4(C)[C@H]3CC[C@@]21C | 17.6 µM (inactive) | 11.1 µM (inactive) | 15 µM (inactive) | 14.2 µM (inactive) | 22.5 µM (inactive) | 16 µM (inactive) | 14.7 µM | 20.7 µM (inactive) | 15.7 µM (inactive) | – | 16.3 µM (inactive) | 14.3 µM (inactive) | 13.4 µM (inactive) | 16.1 µM (inactive) | 13.8 µM (inactive) | 15.6 µM (inactive) | 14.3 µM (inactive) | 13.9 µM (inactive) | 15.4 µM (inactive)
CN(C)c1ccc(/C=N/N=C2\C(=O)Nc3c(Cl)cc(Cl)cc32)cc1 | 46.3 µM (inactive) | 16.4 µM (inactive) | 45.9 µM (inactive) | 28.6 µM (inactive) | 24.7 µM (inactive) | > 100 µM (inactive) | 32.4 µM | > 100 µM (inactive) | 10.1 µM (inactive) | 42.2 µM (inactive) | 24.2 µM (inactive) | 29.5 µM (inactive) | – | 93.1 µM (inactive) | 20.2 µM (inactive) | 13.5 µM (inactive) | 97.9 µM (inactive) | 92.5 µM (inactive) | 22.9 µM (inactive)
Cc1cn([C@H]2C[C@](C)(CO)N(C)O2)c(=O)[nH]c1=O | > 100 µM (inactive) | > 100 µM (inactive) | > 100 µM (inactive) | > 100 µM (inactive) | > 100 µM (inactive) | > 100 µM (inactive) | – | > 100 µM (inactive) | > 100 µM (inactive) | > 100 µM (inactive) | > 100 µM (inactive) | > 100 µM (inactive) | > 100 µM (inactive) | – | > 100 µM (inactive) | > 100 µM (inactive) | > 100 µM (inactive) | > 100 µM (inactive) | > 100 µM (inactive)
CC(C)(C)C1=C(Br)C(C(C)(C)C)OP1(=O)O (stereo not given) | > 100 µM (inactive) | – | > 100 µM (inactive) | > 100 µM (inactive) | > 100 µM (inactive) | > 100 µM (inactive) | > 100 µM | > 100 µM (inactive) | > 100 µM (inactive) | > 100 µM (inactive) | > 100 µM (inactive) | > 100 µM (inactive) | > 100 µM (inactive) | > 100 µM (inactive) | > 100 µM (inactive) | > 100 µM (inactive) | > 100 µM (inactive) | > 100 µM (inactive) | > 100 µM (inactive)
O=C(/C=C/c1cccc(Oc2ccccc2)c1)NCc1ccc(C(=O)NCCc2ccccc2)cc1 | 43.7 µM (inactive) | > 100 µM (inactive) | 24.1 µM (inactive) | – | > 100 µM (inactive) | 29.9 µM (inactive) | > 100 µM | > 100 µM (inactive) | > 100 µM (inactive) | > 100 µM (inactive) | > 100 µM (inactive) | > 100 µM (inactive) | 33.5 µM (inactive) | 24.8 µM (inactive) | > 100 µM (inactive) | > 100 µM (inactive) | > 100 µM (inactive) | > 100 µM (inactive) | > 100 µM (inactive)

From ChEMBL document CHEMBL1201862, “PubChem BioAssay data set” (2004)
